In paper PMC7830597, “Derivatives of Tenuazonic Acid as Potential New Multi-Target Anti-Alzheimer’s Disease Agents” (Biomolecules, 2021):

How the values were obtained:
[1] = Radical scavenging activity, DPPH method; conditions: DPPH assay; mean ± SEM of 3 independent experiments
Description: Therefore, they were assayed for radical scavenging activity using the DPPH method.
The final volume of the assay was 3.5 mL, corrected with MeOH to obtain different concentrations of our compound in each assay. The control solution was composed of MeOH and DPPH [14]. After 30 min, at RT, protected from light, the absorbance was measured at 517 nm (Perkin Elmer Lambda 35 spectrophotometer equipped with a temperature programmer PTP 1þ1 Peltier System, using thermostated (T¼25.0 ± 0.1 °C) 1 cm path length cells), against a blank solution (MeOH). The assays were performed in triplicate, in which the EC50 was obtained through the graphical representation of the %AA vs. the inhibitor concentration.

Aβ1-42 = biological target: T1, Aβ1-42 (Homo sapiens, UniProt P05067); experiment: biochemical; conditions: Aβ1-42; inhibitor 40 µM; SEM < 10%; read-out: Inhib. Aβ Aggreg. Self-Induced
T1 construct: Amyloid β peptide (Aβ1-42) was purchased from GeneCust as a lyophilised powder; purchased GeneCust
T1 sequence (P05067 672-713 limits assumed): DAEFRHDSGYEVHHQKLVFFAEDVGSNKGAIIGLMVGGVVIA
Description: The anti-amyloidogenic activity of all the compounds was also evaluated in vitro, in the absence and in presence of Cu(II), by measuring the fluorescence emission of Thioflavin T (ThT).
The spectrofluorimetric method, based on the fluorescence emission of thioflavin T (ThT), was used to study the Aβ1-42 aggregation inhibition. Firstly, Aβ1-42 was dissolved in HFIP (1,1,1,3,3,3-Hexafluoro-2-propanol) and kept overnight at room temperature in order to obtain a dry film. […] The ligand solutions were prepared with MeOH (1mg/mL) and further with phosphate buffer. […] As a control, a solution of 30 μL of phosphate buffer and 30 μL of Aβ1-42 was used to observe the aggregation without any inhibition, while the ligand assay solutions were composed of 20 μL of phosphate buffer, 30 μL of Aβ1-42 and 10 μL of ligand. The Cu-induced aggregation studies were similarly conducted, adding 10 μL of CuCl2 to induce the fibril aggregation. Each experiment was composed of an assay and a blank sample, where the blank sample lacks Aβ1-42, to monitor the effect of the compounds on the fluorescence emission. The samples were left to incubate in a CERTOMAT WR water bath for 24 h at 37 °C with shaking. After 24 h, a Glycine-NaOH buffer (pH = 8.5) containing ThT were added to each sample in a microplate. The fluorescence signal was monitored at 446 nm (λexc) and 486 nm (λem) with a Varian Cary Eclipse fluorimeter. Amyloid β peptide (Aβ1-42) was purchased from GeneCust as a lyophilised powder and stored at −20 °C [12, 13, 14].

[2] = test system: SH-SY5Y human neuroblastoma cells; experiment: Dose-response cell viability screening, MTT reduction assay; assay type: cell-based; conditions: for cytotoxicity on SH-SY5Y cell line: 10 μM to 100 μM, 24 h, at the active concentrations; for highest non-toxic concentration (selected concentration): SH-SY5Y cells exposed for 25 h
Description: (§1) SH-SY5Y human neuroblastoma cells (ATCC-CRL-2266) were seeded in DMEM/F12 (Dulbecco’s Modified Eagle Medium/Ham’s F-12 Nutrient Mixture; Thermo Fisher Scientific) with 10% heat inactivated fetal bovine serum, 50 U/mL penicillin and 50 U/mL streptomycin under a humidified atmosphere with 95% relative humidity at 37 °C at a 0.16 × 10^6 cells/mL density. Stock solutions from tested compounds (1, 2, 4 and 5) were prepared in DMSO at a 25 mM concentration and stored at −20 °C until needed. In order to select the highest non-toxic concentration, a dose-response screening was performed, where SH-SY5Y cells were exposed to the compounds for 25 h. The selected concentrations for each compound were: 75 µM final concentration for 1 and 2; 10 µM final concentration for 4 and 20 µM final concentration for 5. […] For the neuroprotection assays, the selected compounds were added to the cell media 1 hour prior to the incubation with Aβ1-42 or L-ascorbic acid/ferrous sulphate. Aβ1-42 or L-ascorbic acid/ferrous sulphate treatment was maintained for another 24 h. Aβ1-42 was prepared as 276.9 µM stock in sterile water and administrated in the medium at a 2.5 µM final concentration. Ferrous sulphate was freshly prepared as 0.36 M stock in water and added to the medium at 2.5 mM final concentration. L-ascorbic acid was freshly prepared as 80 mM stock in water and added to the medium at 5 mM final concentration. Aβ1-42 was purchased from Bachem (Torrance, CA, USA) and ferrous sulphate and L-ascorbic acid from Sigma Chemical Co (St. Louis, MO, USA).
(§2) Cell viability was measured by using the MTT (3-(4,5-dimethylthiazol-2-yl)-2,5-diphenyl tetrazolium bromide) reduction assay. This test is based on the presence of succinate dehydrogenase enzyme in viable cells, that allows them to metabolize MTT into a formazan. After treatment, the medium was removed, and cells were washed with 1x PBS one time to remove dead cells. 200 µL of MTT solution (0.5 mg/mL) was added to each well and incubated for 2 h protected from light. Formazan precipitates were then dissolved in DMSO and absorbance measured at 570 nm. The ability to reduce MTT was expressed as a percentage of untreated control cells.
Figure 10 Dose-response screening of compounds 1, 2, 4 and 5 on SH-SY5Y neuronal cell line. Overnight cultures were treated with a range of concentrations from 10 μM to 100 μM for 24 h and cellular viability was determined by employing the MTT reduction assay.

[3] = test system: SH-SY5Y human neuroblastoma cells; experiment: Neuroprotection against Aβ1-42-induced toxicity, MTT; assay type: cell-based; conditions: Aβ1-42 2.5 μM 24 h; 1 h pre-incubation; compounds 1, 2 100 µM; 4 10 µM; 5 20 µM
Description: as §1, §2
Overnight cultures were treated with Aβ1-42 peptide (2.5 μM) for 24 h in the absence or in the presence of the compounds. When compounds were present, a pre-incubation of 1 h preceded the Aβ1-42 treatment. Cellular viability was determined by employing the MTT reduction assay. […] (compounds: 1, 2–100 µM; 4–10 µM; 5–20 µM).

Structure (SMILES) | Antioxidant Activity EC50 [1] | inhibition at 40 µM (Aβ1-42) [%] | cytotoxicity on SH-SY5Y cell line [2] | highest non-toxic concentration (selected concentration) [2] [µM] | protection against Aβ1-42-induced toxicity [3]
CCOC(=O)C1=C(O)C(C(C)C)NC1=O (stereo not shown) [Compound 1, Ethyl 4-hydroxy-5-isopropyl-2-oxo-2,5-dihydro-1H-pyrrole-3-carboxylate] | 10.8 ± 0.2 µmol/µmol of DPPH | 32.9 | do not show (except for compound 4) cytotoxicity | 75 | do not confer protection
CCOC(=O)C1=C(O)C(Cc2ccccc2)NC1=O (stereo not shown) [Compound 2, Ethyl 5-benzyl-4-hydroxy-2-oxo-2,5-dihydro-1H-pyrrole-3-carboxylate] | 6.3 ± 0.1 µmol/µmol of DPPH | 12.4 | do not show (except for compound 4) cytotoxicity | 75 | do not confer protection
